In paper PMC6855212, “Antibacterial activity of synthetic 1,3‐bis(aryloxy)propan‐2‐amines against Gram‐positive bacteria” (MicrobiologyOpen, 2019):
Converted amounts (≈) assume the structure as drawn. “And” between values parts separate entries of the source, which are not always exact repeats. Equal values may be shown once. Read-outs that look alike come from different tables or passages of the source.

Columns and labels:
MRSA Strain 5749 [1] = test: MIC, broth microdilution; assay type: cell-based; conditions: Staphylococcus aureus, clinical strain, read-out: MIC MRSA Strain 5749
Procedure: (§1) The antibacterial activity of the compounds was evaluated using the broth microdilution method in 96‐well microplates according to the Clinical and Laboratory Standards Institute protocol (CLSI, 2017). First, synthetic compounds were diluted in Mueller Hinton broth (MHB; Oxoid, Thermo Scientific, UK) to concentrations ranging from 20 to 2.5 μg/ml. The same volume of a bacterial suspension containing 10^5 CFU/ml was added to each of the previous solutions, resulting in final compound concentrations from 10 to 1.25 μg/ml. […] All conditions were tested in triplicate and the results shown are representative of three independent assays.

MRSA Strain 5912 [2] = test: MIC, broth microdilution; assay type: cell-based; conditions: Staphylococcus aureus, clinical strain, read-out: MIC MRSA Strain 5912
Procedure: as §1

MRSA Strain 6154 [3] = test: MIC, broth microdilution; assay type: cell-based; conditions: Staphylococcus aureus, clinical strain, read-out: MIC MRSA Strain 6154
Procedure: as §1

MRSA Strain 6613 [4] = test: MIC, broth microdilution; assay type: cell-based; conditions: Staphylococcus aureus, clinical strain, read-out: MIC MRSA Strain 6613
Procedure: as §1

[5] = test system: Staphylococcus aureus ATCC 29212; test: MIC, broth microdilution; assay type: cell-based; conditions: for MIC: Staphylococcus aureus, ATCC29212; for Antibacterial activity in initial screening, S. aureus: concentration of 10 μg/ml
Procedure: as §1

[6] = test system: Streptococcus pyogenes ATCC 19615; test: MIC, broth microdilution; assay type: cell-based; conditions: for MIC: Streptococcus pyogenes, ATCC19615; for Antibacterial activity in initial screening, S. pyogenes: concentration of 10 μg/ml
Procedure: as §1

MRSA Strain 5749 [7] = test: MBC, plating of wells without growth; assay type: cell-based; conditions: Staphylococcus aureus
Procedure: (§2) After incubation at 35°C for 24 hr, the colonies were counted and the percentage of inhibition was calculated. MBC is defined as the lowest compound's concentration that inhibits at least 99.9% of the bacterial cell count compared to nontreated viability control (Clinical and Laboratory Standards Institute, 1999).

MRSA Strain 5912 [8] = test: MBC, plating of wells without growth; assay type: cell-based; conditions: Staphylococcus aureus
Procedure: as §2

MRSA Strain 6154 [9] = test: MBC, plating of wells without growth; assay type: cell-based; conditions: Staphylococcus aureus
Procedure: as §2

MRSA Strain 6613 [10] = test: MBC, plating of wells without growth; assay type: cell-based; conditions: Staphylococcus aureus
Procedure: as §2

S. aureus ATCC 29212 = test: MBC, plating of wells without growth; assay type: cell-based; conditions: Staphylococcus aureus, ATCC29212; at least 99.9% inhibition of cell count
Procedure: as §2

S. pyogenes ATCC 19615 = test: MBC, plating of wells without growth; assay type: cell-based; conditions: Streptococcus pyogenes, ATCC19615; at least 99.9% inhibition of cell count
Procedure: as §2

[11] = Cytotoxicity, MTT reduction assay; assay type: cell-based; conditions: African green monkey, 48 hr
Procedure: (§3) The cytotoxicity of active compounds to mammalian cells was assessed using the MTT reduction assay (Mosmann, 1983). Vero and BSC‐40 cells were seeded in 96‐well plates (8 × 10^4 cells per well) and incubated at 37°C and 5% CO2 atmosphere. After 24 hr of incubation, 200 μL of fresh medium containing a serial dilution of compounds (10–1.25 μg/ml) were added to the plates. After 48 hr of incubation in the same conditions, 100 μL of MTT solution in MEM or DMEM (5 mg/ml) was added to each well and incubated for 3 hr at 37°C and 5% CO2 atmosphere. The medium was removed and 100 μL of DMSO was used to solubilize formazan crystals. Absorbance at 570 nm of each well was read using a spectrophotometer (VersaMax, Molecular Devices).

MRSA strains [12] = test: MIC, broth microdilution, MRSA strains taken together; assay type: cell-based; conditions: Staphylococcus aureus; over the six MRSA strains (CPD18: four out of six); read-out: MIC against MRSA strains
Procedure: as §1

MRSA strains [13] = test: MBC, MRSA strains taken together; assay type: cell-based, Staphylococcus aureus; conditions: concentrations tested (up to 10 μg/ml)
Procedure: as §2

[14] = test system: Gram‐positive bacteria (E. faecalis, S. aureus and S. pyogenes); test: MIC, broth microdilution, Gram‐positive bacteria taken together; assay type: cell-based; conditions: Staphylococcus aureus; over different bacterial strains, including MRSA where stated; read-out: MIC against Gram‐positive bacteria, summary
Procedure: as §1

[15] = test system: Enterococcus faecalis ATCC 29213; test: MIC, broth microdilution; assay type: cell-based; conditions: for MIC: Enterococcus faecalis, ATCC29213; for Antibacterial activity in initial screening, E. faecalis: concentration of 10 μg/ml
Procedure: as §1

MRSA ATCC 43300 [16] = test: MIC, broth microdilution; assay type: cell-based; conditions: Staphylococcus aureus; — = no activity up to 10 μg/ml; read-out: MIC MRSA ATCC 43300
Procedure: as §1

MRSA Strain 6100 [17] = test: MIC, broth microdilution; assay type: cell-based; conditions: Staphylococcus aureus, clinical strain, — = no activity up to 10 μg/ml, read-out: MIC MRSA Strain 6100
Procedure: as §1

E. faecalis ATCC 29213 = test: MBC, plating of wells without growth; assay type: cell-based; conditions: Enterococcus faecalis, ATCC29213; at least 99.9% inhibition of cell count
Procedure: as §2

MRSA ATCC 43300 [18] = test: MBC, plating of wells without growth; assay type: cell-based; conditions: Staphylococcus aureus
Procedure: as §2

MRSA Strain 6100 [19] = test: MBC, plating of wells without growth; assay type: cell-based; conditions: Staphylococcus aureus
Procedure: as §2

BSC‐40 cells = test: Cytotoxicity, MTT reduction assay; assay type: cell-based; conditions: BSC‐40; bacterial strain not stated
Procedure: as §3

Vero cells = test: Cytotoxicity, MTT reduction assay; assay type: cell-based; conditions: bacterial strain not stated
Procedure: as §3

[20] = 24 hr, 35°C, read-out: MIC Staphylococcus aureus ATCC 29212
[21] = read-out: MIC against S. aureus
[22] = 24 hr, 35°C, read-out: MIC Streptococcus pyogenes ATCC 19615
[23] = read-out: MIC against S. pyogenes
[24] = BSC-40 cells, BSC‐40, MTT, read-out: CC50
[25] = BSC-40 cells, BSC‐40, MTT, read-out: CC50 ± SD
[26] = Vero cells, MTT, read-out: CC50
[27] = Vero cells, MTT, read-out: CC50 ± SD
[28] = 24 hr, 35°C, — = no activity up to 10 μg/ml, read-out: MIC Enterococcus faecalis ATCC 29213
[29] = read-out: MIC against E. faecalis

Structure (SMILES)	MIC (MRSA Strain 5749 [1]) [µM]	MIC (MRSA Strain 5912 [2]) [µM]	MIC (MRSA Strain 6154 [3]) [µM]	MIC (MRSA Strain 6613 [4]) [µM]	MIC [5, 20] [µM]	MIC [5, 21] [µg/mL]	Antibacterial activity in initial screening, S. aureus [5]	MIC [6, 22] [µM]	MIC [6, 23] [µg/mL]	Antibacterial activity in initial screening, S. pyogenes [6]	MBC (MRSA Strain 5749 [7]) [µM]	MBC (MRSA Strain 5912 [8]) [µM]	MBC (MRSA Strain 6154 [9]) [µM]	MBC (MRSA Strain 6613 [10]) [µM]	MBC (S. aureus ATCC 29212) [µM]	MBC (S. pyogenes ATCC 19615) [µM]	CC50 at 48 h [11, 25] [µM]	CC50 at 48 h [11, 26] [µg/mL]	CC50 at 48 h [11, 27] [µM]	MIC (MRSA strains [12])	further results
NC(COc1ccc(Cl)cc1)COc1ccc(Cl)cc1 [CPD18]	28.7 (≈ 8.95 µg/mL)	28.7 (≈ 8.95 µg/mL)	28.7 (≈ 8.95 µg/mL)	28.7 (≈ 8.95 µg/mL)	28.7	10	showed activity	28.7	10	showed activity	> 28.7	> 28.7	> 28.7	> 28.7	> 28.7	> 28.7	16.4 ± 0.52	5.99 ± 0.09	17.2 ± 0.26	10 µg/mL and 28.7 µM	CC50 at 48 h [11, 24]: 5.73 ± 0.18 µg/mL; Bactericidal activity against MRSA strains (MRSA strains [13]): no bactericidal activity was observed; MIC [14]: 10 µg/mL and 28.7 µM
NC(COc1cccc2ccccc12)COc1cccc2ccccc12 [CPD20]	6.58 (≈ 2.26 µg/mL)	6.58 (≈ 2.26 µg/mL)	6.58 (≈ 2.26 µg/mL)	6.58 (≈ 2.26 µg/mL)	6.58	2.5	inhibited the growth	6.58	2.5	inhibited the growth	6.58 (≈ 2.26 µg/mL)	6.58 (≈ 2.26 µg/mL)	26.3 (≈ 9.04 µg/mL)	6.58 (≈ 2.26 µg/mL)	26.3 (≈ 9.04 µg/mL)	6.58 (≈ 2.26 µg/mL)	6.58 ± 1.97	3.79 ± 0.6	9.98 ± 1.58	2.5 µg/mL and 6.58 µM	MIC [15, 28]: 13.2 µM; MIC [15, 29]: 5 µg/mL; Antibacterial activity in initial screening, E. faecalis [15]: inhibited the growth; MIC (MRSA ATCC 43300 [16]): 6.58 µM (≈ 2.26 µg/mL); MIC (MRSA Strain 6100 [17]): 6.58 µM (≈ 2.26 µg/mL); MBC (E. faecalis ATCC 29213): 26.3 µM (≈ 9.04 µg/mL); MBC (MRSA ATCC 43300 [18]): 13.2 µM (≈ 4.52 µg/mL); MBC (MRSA Strain 6100 [19]): 6.58 µM (≈ 2.26 µg/mL); CC50 at 48 h [11, 24]: 2.5 ± 0.75 µg/mL; MIC [14]: 2.5 µg/mL to 5 µg/mL and 6.58 µM to 13.2 µM
Cl.NC(COc1ccc(Cl)c(Cl)c1)COc1ccc(Cl)c(Cl)c1 [CPD22, 1,3‐Bis(3,4‐dichlorophenoxy)propan‐2‐aminium chloride]	5.99	5.99	5.99	12	12	5	inhibited the growth	5.99	2.5	inhibited the growth	5.99	5.99	> 23.9	12	12	23.9	10.6 ± 3.16	5.47 ± 1.89	13.1 ± 4.53	2.5 µg/mL to 5 µg/mL and 5.99 µM to 12 µM	MIC [15, 28]: 12 µM; MIC [15, 29]: 5 µg/mL; Antibacterial activity in initial screening, E. faecalis [15]: inhibited the growth; MIC (MRSA ATCC 43300 [16]): 12 µM; MIC (MRSA Strain 6100 [17]): 5.99 µM; MBC (E. faecalis ATCC 29213): > 23.9 µM; MBC (MRSA ATCC 43300 [18]): 12 µM; MBC (MRSA Strain 6100 [19]): 23.9 µM; Selective Index (SI), higher value (BSC‐40 cells): 1.77; Selective Index (SI), higher value (Vero cells): 2.19; MIC [14]: 2.5 µg/mL to 5 µg/mL and 5.99 µM to 12 µM; melting point: 224.1 to 225.6 °C
